Results published in ChEMBL document CHEMBL2029260, “Structural basis of selective inhibition of human tankyrases” (J Med Chem, 2012).

These compounds were tested against T1, Poly [ADP-ribose] polymerase tankyrase-2 (Homo sapiens, UniProt Q9H2K2) (assay: Activity of N-terminus hexaHis-tagged human TNSK2 expressed in Escherichia coli BL21 (DE3) cells using biotinylated NAD+ as substrate after 90 mins by Western blot analysis).
T1 sequence (Q9H2K2 whole entry): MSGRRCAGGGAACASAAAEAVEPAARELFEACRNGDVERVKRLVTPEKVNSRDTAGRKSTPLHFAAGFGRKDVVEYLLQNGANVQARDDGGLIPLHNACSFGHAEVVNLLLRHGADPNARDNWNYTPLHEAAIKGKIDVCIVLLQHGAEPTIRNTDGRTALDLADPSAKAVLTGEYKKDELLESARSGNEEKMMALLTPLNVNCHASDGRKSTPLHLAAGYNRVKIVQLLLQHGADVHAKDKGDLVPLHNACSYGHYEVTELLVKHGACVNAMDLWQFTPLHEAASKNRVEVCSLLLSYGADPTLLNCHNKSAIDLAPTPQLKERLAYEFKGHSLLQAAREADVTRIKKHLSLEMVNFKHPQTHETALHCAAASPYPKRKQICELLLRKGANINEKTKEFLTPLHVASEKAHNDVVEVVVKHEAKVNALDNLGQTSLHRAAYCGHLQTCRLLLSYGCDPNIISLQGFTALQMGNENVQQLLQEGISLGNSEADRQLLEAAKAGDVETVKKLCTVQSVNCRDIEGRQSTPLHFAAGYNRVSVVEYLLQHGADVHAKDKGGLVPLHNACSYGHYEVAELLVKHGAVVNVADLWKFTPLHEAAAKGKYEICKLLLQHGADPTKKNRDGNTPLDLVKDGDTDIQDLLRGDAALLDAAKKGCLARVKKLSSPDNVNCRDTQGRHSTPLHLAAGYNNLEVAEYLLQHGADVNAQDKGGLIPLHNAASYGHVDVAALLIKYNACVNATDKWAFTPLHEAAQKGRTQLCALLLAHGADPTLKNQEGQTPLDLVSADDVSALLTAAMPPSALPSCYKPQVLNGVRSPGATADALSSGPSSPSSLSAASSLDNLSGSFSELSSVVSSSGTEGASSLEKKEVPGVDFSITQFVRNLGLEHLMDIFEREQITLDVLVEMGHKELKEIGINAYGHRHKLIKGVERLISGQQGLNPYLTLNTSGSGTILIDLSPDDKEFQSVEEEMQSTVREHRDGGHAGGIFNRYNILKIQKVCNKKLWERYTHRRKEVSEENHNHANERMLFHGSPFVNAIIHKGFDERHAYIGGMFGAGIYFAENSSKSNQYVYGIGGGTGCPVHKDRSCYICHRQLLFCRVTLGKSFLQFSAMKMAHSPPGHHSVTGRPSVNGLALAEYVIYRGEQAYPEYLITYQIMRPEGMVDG
For `O=C(Nc1ccccc1)c1ccc(N2C(=O)[C@@H]3[C@H](C2=O)[C@@H]2C=C[C@H]3C2)cc1`, the EC50 was greater than 25 µM.
`CO[C@H]1CCCC[C@@H]1NC(=O)c1ccc(N2C(=O)[C@@H]3[C@H](C2=O)[C@@H]2C=C[C@H]3C2)cc1` gave an EC50 of 2 µM.
`O=C(Nc1ccc(Br)cc1)c1ccc(N2C(=O)[C@@H]3[C@H](C2=O)[C@@H]2C=C[C@H]3C2)cc1` was tested, and the EC50 was 1 µM.
`O=C(NCc1ccncc1)c1ccc(N2C(=O)[C@@H]3[C@H](C2=O)[C@@H]2C=C[C@H]3C2)cc1` gave an EC50 of 10 µM.
`O=C(NCc1ccccc1)c1ccc(N2C(=O)[C@@H]3[C@H](C2=O)[C@@H]2C=C[C@H]3C2)cc1` gave an EC50 of 20 µM.
`O=C(NC1CCCCC1)c1ccc(N2C(=O)[C@@H]3[C@H](C2=O)[C@@H]2C=C[C@H]3C2)cc1` gave an EC50 greater than 25 µM.
